Assay results taken from patent US6737383B1, “Herbicidal oxadiazolidines” (priority 1999, dated 2004).

Assays:
purple nutsedge = assay: Test B pre/postemergence purple nutsedge; format: in vivo, Cyperus rotundus; conditions: Preemergence, Rate 125 g/ha; scale of 0 to 10 where 0 is no effect and 10 is complete control
Excerpt: (§1) Seeds of bedstraw (Galium aparine), blackgrass (Alopecurus myosuroides), surinam grass (Brachiaria decumbens), cocklebur (Xanthium strumarium), corn (Zea mays), crabgrass (Digitaria sanguinalis), giant foxtail (Setaria faberii), morningglory (Ipomoea hederacea), pigweed (Amaranthus retroflexus), rape (Brassica napus), soybean (Glycine max), sugar beet (Beta vulgaris), velvetleaf (Abutilon theophrasti), wheat (Triticum aestivum), wild oat (Avena fatua) and purple nutsedge (Cyperus rotundus) tubers were planted and treated preemnergence with test chemicals formulated in a non-phytotoxic solvent mixture which included a surfactant.
(§2) At the same time, these crop and weed species were also treated with postemergence applications of test chemicals formulated in the same manner. Plants ranged in height from 2 to 18 cm (1- to 4-leaf stage) for postemergence treatments. Plant species in the flood test consisted of rice (Oryza sativa), smallflower flatsedge (Cyperus difformis), duck salad (Heteranthera limosa) and bamyardgrass (Echinochloa crus-galli) grown to the 2-leaf stage for testing. Treated plants and controls were maintained in a greenhouse for twelve to sixteen days, after which all species were compared to controls and visually evaluated. Plant response ratings, summarized in Table B, are based on a scale of 0 to 10 where 0 is no effect and 10 is complete control. A dash (−) response means no test result.

cocklebur = assay: Test B pre/postemergence cocklebur; format: in vivo, Xanthium strumarium; conditions: Preemergence
Excerpt: as §1, §2

surinam grass = assay: Test B pre/postemergence surinam grass; format: in vivo, Brachiaria decumbens; conditions: Preemergence
Excerpt: as §1, §2

corn = assay: Test B pre/postemergence corn; format: in vivo, Zea mays; conditions: Preemergence
Excerpt: as §1, §2

wild oat = assay: Test B pre/postemergence wild oat; format: in vivo, Avena fatua; conditions: Preemergence
Excerpt: as §1, §2

pigweed = assay: Test B pre/postemergence pigweed; format: in vivo, Amaranthus retroflexus; conditions: Preemergence
Excerpt: as §1, §2

soybean = assay: Test B pre/postemergence soybean; format: in vivo, Glycine max; conditions: Preemergence
Excerpt: as §1, §2

giant foxtail = assay: Test B pre/postemergence giant foxtail; format: in vivo, Setaria faberii; conditions: Preemergence
Excerpt: as §1, §2

crabgrass = assay: Test B pre/postemergence crabgrass; format: in vivo, Digitaria sanguinalis; conditions: Preemergence
Excerpt: as §1, §2

morningglory = assay: Test B pre/postemergence morningglory; format: in vivo, Ipomoea hederacea; conditions: Preemergence
Excerpt: as §1, §2

blackgrass = assay: Test B pre/postemergence blackgrass; format: in vivo, Alopecurus myosuroides; conditions: Preemergence
Excerpt: as §1, §2

rape = assay: Test B pre/postemergence rape; format: in vivo, Brassica napus; conditions: Preemergence
Excerpt: as §1, §2

velvetleaf = assay: Test B pre/postemergence velvetleaf; format: in vivo, Abutilon theophrasti; conditions: Preemergence
Excerpt: as §1, §2

bedstraw = assay: Test B pre/postemergence bedstraw; format: in vivo, Galium aparine; conditions: Preemergence
Excerpt: as §1, §2

wheat = assay: Test B pre/postemergence wheat; format: in vivo, Triticum aestivum; conditions: Preemergence
Excerpt: as §1, §2

sugar beet = assay: Test B pre/postemergence sugar beet; format: in vivo, Beta vulgaris; conditions: Preemergence
Excerpt: as §1, §2

[1] = Rate 125 g/ha, scale of 0 to 10 where 0 is no effect and 10 is complete control
[2] = Rate 250 g/ha, scale 0 to 10 (0 no effect, 10 complete control)
[3] = Rate 500 g/ha, scale of 0 to 10 where 0 is no effect and 10 is complete control
[4] = Rate 1000 g/ha, scale 0 to 10 (0 no effect, 10 complete control)

COP(=O)(CCn1c(=O)on(C(=O)N(c2ccc(Cl)cc2)C(C)C)c1=O)OC [Compound 698]
Plant response rating, Nutsedge (purple nutsedge): 0 | Plant response rating, Cocklebur (cocklebur; [1]): 0 | Plant response rating, Cocklebur (cocklebur; [2]): 0 | Plant response rating, Cocklebur (cocklebur; [3]): 0 | Plant response rating, Cocklebur (cocklebur; [4]): 0 | Plant response rating, B. signalgrass (surinam grass; [1]): 0 | Plant response rating, B. signalgrass (surinam grass; [2]): 3 | Plant response rating, B. signalgrass (surinam grass; [3]): 5 | Plant response rating, B. signalgrass (surinam grass; [4]): 4 | Plant response rating, Corn (corn; [1]): 0 | Plant response rating, Corn (corn; [2]): 0 | Plant response rating, Corn (corn; [4]): 0 | Plant response rating, Wild oats (wild oat; [1]): 0 | Plant response rating, Wild oats (wild oat; [4]): 10 | Plant response rating, Redroot pigweed (pigweed; [1]): 0 | Plant response rating, Redroot pigweed (pigweed; [4]): 0 | Plant response rating, Soybean (soybean; [1]): 0 | Plant response rating, Soybean (soybean; [4]): 3 | Plant response rating, Giant foxtail (giant foxtail; [1]): 0 | Plant response rating, Giant foxtail (giant foxtail; [4]): 10 | Plant response rating, Crabgrass (crabgrass; [1]): 3 | Plant response rating, Crabgrass (crabgrass; [2]): 8 | Plant response rating, Crabgrass (crabgrass; [4]): 9 | Plant response rating, Morningglory (morningglory; [1]): 0 | Plant response rating, Morningglory (morningglory; [4]): 0 | Plant response rating, Blackgrass (blackgrass; [1]): 0 | Plant response rating, Blackgrass (blackgrass; [2]): 2 | Plant response rating, Blackgrass (blackgrass; [3]): 8 | Plant response rating, Blackgrass (blackgrass; [4]): 9 | Plant response rating, Rape (rape; [1]): 0 | Plant response rating, Rape (rape; [4]): 8 | Plant response rating, Velvetleaf (velvetleaf; [1]): 0 | Plant response rating, Velvetleaf (velvetleaf; [4]): 0 | Plant response rating, Bedstraw (bedstraw; [1]): 0 | Plant response rating, Bedstraw (bedstraw; [2]): 0 | Plant response rating, Bedstraw (bedstraw; [3]): 0 | Plant response rating, Bedstraw (bedstraw; [4]): 0 | Plant response rating, Wheat (wheat; [1]): 0 | Plant response rating, Wheat (wheat; [4]): 6 | Plant response rating, Sugarbeets (sugar beet; [1]): 0 | Plant response rating, Sugarbeets (sugar beet; [4]): 0
